Common to all, as to format: in vitro ADME
In one series the target is T1, human OAT1 (Homo sapiens, UniProt Q4U2R8).
T1 construct: expressed in transfected cells; host or cells: CHO (protocol UPT-CHO-OAT1-Tenofovir; control: parental CHO-K1)
T1 sequence (Q4U2R8 1-563): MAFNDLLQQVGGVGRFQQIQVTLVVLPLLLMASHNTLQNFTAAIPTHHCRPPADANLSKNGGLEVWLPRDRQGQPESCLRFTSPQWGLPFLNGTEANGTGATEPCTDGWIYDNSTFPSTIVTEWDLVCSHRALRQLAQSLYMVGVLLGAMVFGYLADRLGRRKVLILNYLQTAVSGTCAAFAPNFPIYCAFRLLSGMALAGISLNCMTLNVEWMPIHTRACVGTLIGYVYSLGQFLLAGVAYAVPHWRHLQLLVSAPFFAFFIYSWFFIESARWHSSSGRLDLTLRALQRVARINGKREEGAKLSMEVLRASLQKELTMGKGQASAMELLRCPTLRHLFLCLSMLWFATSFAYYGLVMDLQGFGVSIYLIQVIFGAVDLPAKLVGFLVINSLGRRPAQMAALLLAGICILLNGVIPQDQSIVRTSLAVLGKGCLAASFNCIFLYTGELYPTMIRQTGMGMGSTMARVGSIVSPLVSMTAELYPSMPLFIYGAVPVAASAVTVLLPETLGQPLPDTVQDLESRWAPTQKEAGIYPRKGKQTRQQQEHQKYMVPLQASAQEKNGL
Put plainly: Uptake transporter substrate feasibility assay, OAT1. Also noted: key to Substrate: NIO: No interaction observed. As to the method: (§1) Uptake experiments were performed using CHO, MDCKII, or HEK293 cells stably expressing the respective uptake transporters.
(§2) Cells were cultured at 37±1° C. in an atmosphere of 95:5 air:CO2 as described in Table 4 and were plated onto standard 24-well tissue culture plates at 2×10^5 cells/well. The uptake of the TA was determined using cells overexpressing the respective uptake transporter and control cells, at two incubation time points (2 and 20 min) and at two concentrations (1 and 10 μM) of TA to determine whether or not the TA was actively taken up into the cells.
(§3) Before the experiment, the medium was removed and the cells were washed twice with 300 μl of HK buffer (pH 7.4) (prepared from Sigma chemicals). Cellular uptake of TA into the cells was measured by adding 300 μl of HK buffer containing TA and incubating them at 37±1° C. Reactions were quenched by removing the HK buffer containing the TA and the cells were washed twice with 300 μl of HK buffer. Cells were lysed by adding 300 μl of MeOH:H2O (2:1) and incubated for 20 minutes at 4±1° C. The amount of TA in the cell lysate was determined by LC-MS/MS. The amount of protein in each well was quantified using the BCA kit for protein determination (Sigma-Aldrich, St Louis, Mo., USA). Uptake of the probe substrate in control cells provided background activity values for all data points. Incubation without reference inhibitor (solvent only) provided 100% activity values. A reference inhibitor served as positive control for inhibition.
(§4) The fold accumulation value was defined as the ratio of uptake of TA or probe substrate into transfected and control cells:
(§5) [formula] UPTTRP: accumulated amount of TA or probe substrate in transfected cells normalized by protein content [pmol/mg protein] UPTCTL: accumulated amount of TA or probe substrate in control cells normalized by protein content [pmol/mg protein]
(§6) If the fold accumulation is >2 and can be inhibited by a known inhibitor of the transporter, the TA can be considered to be a substrate of the respective transporter.

Another series has as its target T2, human OAT3 (Homo sapiens, UniProt Q8TCC7).
T2 construct: expressed in transfected cells; host or cells: MDCKII (protocol UPT-MDCKII-OAT3-E3S; control: parental MDCKII)
T2 sequence (Q8TCC7 1-542): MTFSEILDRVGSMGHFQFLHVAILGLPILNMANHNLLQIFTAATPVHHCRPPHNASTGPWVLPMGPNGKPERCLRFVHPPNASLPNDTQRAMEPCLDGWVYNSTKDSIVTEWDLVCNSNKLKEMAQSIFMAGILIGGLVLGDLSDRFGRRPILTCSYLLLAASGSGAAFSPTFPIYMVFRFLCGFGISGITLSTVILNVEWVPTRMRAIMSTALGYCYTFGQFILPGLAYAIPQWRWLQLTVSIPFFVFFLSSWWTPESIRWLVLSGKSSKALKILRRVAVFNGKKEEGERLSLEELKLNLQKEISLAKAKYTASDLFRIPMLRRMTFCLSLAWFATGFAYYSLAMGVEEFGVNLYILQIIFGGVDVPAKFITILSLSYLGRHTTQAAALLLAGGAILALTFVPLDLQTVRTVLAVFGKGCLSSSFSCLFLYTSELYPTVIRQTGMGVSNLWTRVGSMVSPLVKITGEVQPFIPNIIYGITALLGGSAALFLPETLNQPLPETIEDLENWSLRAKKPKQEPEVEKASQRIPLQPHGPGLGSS
In words: Uptake transporter substrate feasibility assay, OAT3. The arrangement: key to Substrate: NIO: No interaction observed. As to the method:
as §1, §2, §3, §4, §5, §6

The target of another series is T3, OATP1B3 (Homo sapiens, UniProt Q9NPD5).
T3 sequence (Q9NPD5 1-702): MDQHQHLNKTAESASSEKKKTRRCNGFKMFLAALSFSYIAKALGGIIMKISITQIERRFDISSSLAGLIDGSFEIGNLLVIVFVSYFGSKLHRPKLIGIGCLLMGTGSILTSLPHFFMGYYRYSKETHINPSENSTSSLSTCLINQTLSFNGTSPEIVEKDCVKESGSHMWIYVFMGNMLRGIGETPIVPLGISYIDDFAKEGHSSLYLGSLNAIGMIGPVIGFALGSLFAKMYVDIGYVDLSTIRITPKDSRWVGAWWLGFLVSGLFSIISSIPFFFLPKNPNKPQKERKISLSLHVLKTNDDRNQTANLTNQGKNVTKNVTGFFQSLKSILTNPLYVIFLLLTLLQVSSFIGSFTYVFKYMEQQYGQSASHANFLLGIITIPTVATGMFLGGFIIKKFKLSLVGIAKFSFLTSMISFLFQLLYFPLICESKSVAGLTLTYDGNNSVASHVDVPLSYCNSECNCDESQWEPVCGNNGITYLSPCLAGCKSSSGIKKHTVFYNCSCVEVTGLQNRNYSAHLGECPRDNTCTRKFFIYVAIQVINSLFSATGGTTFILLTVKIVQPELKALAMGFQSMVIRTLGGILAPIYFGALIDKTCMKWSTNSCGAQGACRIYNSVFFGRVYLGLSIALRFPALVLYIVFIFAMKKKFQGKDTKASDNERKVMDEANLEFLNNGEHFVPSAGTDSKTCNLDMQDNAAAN
In words: Substrate statement, OATP1B3.

With `[O-][n+]1cccc(C(Cl)=NOCC(O)CN2CCCCC2)c1` (stereo not drawn) [Arimoclomol, N-[2-hydroxy-3-(1-piperidinyl)-propoxy]-pyridine-1-oxide-3-carboximidoyl chloride], the “Substrate of the transporter (in words)” value on human OAT1, at human OAT3 and on OATP1B3 was “not a substrate” each time. The Fold accumulation on human OAT1 (1 μM, 2 min) is 0.77; on human OAT1 (1 μM, 20 min), 0.75; at human OAT1 (10 μM, 2 min), 0.56; on human OAT1 (10 μM, 20 min) it was 0.73; on human OAT1 (1 and 10 μM, 2 and 20 min) it was less than 2; on human OAT3 (1 μM, 2 min), 0.86. Also, the Fold accumulation on human OAT3 (1 μM, 20 min) was 0.86; on human OAT3 (10 μM, 2 min), 0.85; at human OAT3 (10 μM, 20 min) it was 0.82; on human OAT3 (1 and 10 μM, 2 and 20 min) it was less than 2. The Substrate entry on human OAT1 (Table 2) and at human OAT3 (Table 2) was “NIO” each time.
